From patent publication US8546377B2 (AbbVie Inc., priority 2009, dated 2013)
Like-named read-outs stand apart in the source and are kept apart here.

Assays:
5HT2B receptors = target: T1, 5HT2B receptors (Homo sapiens, UniProt P41595); assay: Human 5-HT2B functional assay in CHO-K1 cells (calcium flux, FLIPR); format: cell-based; conditions: for EC50: CHO-K1 cells over-expressing 5HT2B, calcium flux, read-out: EC50 (μM), 5-HT2B Agonist Activity; for Emax: CHO-K1 cells, percentage relative to the effect of serotonin, read-out: Emax (%), 5-HT2B Agonist Activity
T1 construct: expressed in transfected cells; host or cells: CHO-K1 cells
T1 sequence (P41595 whole entry): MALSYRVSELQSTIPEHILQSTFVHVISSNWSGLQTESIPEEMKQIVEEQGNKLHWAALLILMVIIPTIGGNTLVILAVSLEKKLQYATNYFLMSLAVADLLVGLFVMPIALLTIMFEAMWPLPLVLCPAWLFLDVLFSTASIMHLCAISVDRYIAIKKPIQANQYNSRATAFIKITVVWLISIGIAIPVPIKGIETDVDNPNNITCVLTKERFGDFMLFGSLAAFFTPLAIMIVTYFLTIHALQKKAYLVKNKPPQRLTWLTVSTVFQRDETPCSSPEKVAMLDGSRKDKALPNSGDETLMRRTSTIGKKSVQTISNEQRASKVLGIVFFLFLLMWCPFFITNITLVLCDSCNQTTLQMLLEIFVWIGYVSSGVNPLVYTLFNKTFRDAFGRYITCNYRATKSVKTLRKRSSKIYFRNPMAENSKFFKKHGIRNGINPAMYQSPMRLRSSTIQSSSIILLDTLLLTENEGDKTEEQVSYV
How it was run: (§1)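 EC50 came from a 4-parameter logistic fit, with Emax expressed relative to serotonin, of intracellular Ca2+ rises read on FLIPR at 480/530 nm, 25° C, over 3 min. Compounds ran from 10 μM in six 1:10 steps (0.2% DMSO) on serum-starved CHO-K1 transfectants pre-loaded 60 min with Ca4 dye and probenecid.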

5HT2C receptors = target: T2, 5HT2C receptors (Homo sapiens, UniProt P28335); assay: Human 5-HT2C functional assay in CHO-K1 cells (calcium flux, FLIPR); format: cell-based; design: expressed in transfected cells; host or cells: CHO-K1 cells; conditions: for Emax: percentage relative to the effect of serotonin; for EC50: CHO-K1 cells over-expressing 5HT2C, calcium flux, read-out: EC50 (μM), 5-HT2c Agonist Activity
T2 sequence (P28335 33-458): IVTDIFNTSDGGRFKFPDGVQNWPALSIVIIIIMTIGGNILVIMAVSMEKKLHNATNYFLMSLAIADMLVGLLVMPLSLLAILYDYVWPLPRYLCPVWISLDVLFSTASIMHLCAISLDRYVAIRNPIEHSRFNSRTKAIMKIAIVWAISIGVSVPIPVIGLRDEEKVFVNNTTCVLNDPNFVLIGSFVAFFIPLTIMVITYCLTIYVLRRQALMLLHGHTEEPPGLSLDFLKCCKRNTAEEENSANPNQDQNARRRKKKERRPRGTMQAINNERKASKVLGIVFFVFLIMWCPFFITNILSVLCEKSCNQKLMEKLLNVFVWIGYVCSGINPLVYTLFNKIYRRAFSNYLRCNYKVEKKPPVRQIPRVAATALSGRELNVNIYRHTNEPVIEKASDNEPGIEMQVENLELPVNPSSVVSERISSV
How it was run: as §1

[1] = CHO-K1 cells, read-out: Emax (%), 5-HT2c Agonist Activity

| Compound | EC50 (5HT2B receptors) [µM] | Emax (5HT2C receptors; CHO-K1, read-out: Emax (%), 5-HT2c Agonist Activity, CHO-K1 cells) [%] | EC50 (5HT2C receptors) [µM] | Emax (5HT2B receptors) [%] | Emax (5HT2C receptors; [1]) [%] |
| --- | --- | --- | --- | --- | --- |
| O=C1CC2CNCCN2c2ncccc2N1 (centres unmarked) [Example 150, 7,7a,8,9,10,11-hexahydropyrazino[1,2-d]pyrido[3,2-b][1,4]diazepin-6(5H)-one] | > 10 | > 120 | 0.2 | – | – |
| CN1C(=O)CC2CNCCN2c2cc(CCc3ccccc3)ccc21 (centres unmarked) [Example 151, 7-methyl-10-(2-phenylethyl)-1,2,3,4,4a,5-hexahydropyrazino[1,2-a][1,5]benzodiazepin-6(7H)-one] | 5 | – | 0.07 | 30 | 110 |
| O=C1CC2CNCCN2c2cc(OCCc3cccc(F)c3)ccc2N1 (centres unmarked) [Example 152, 10-[2-(3-fluorophenyl)ethoxy]-1,2,3,4,4a,5-hexahydropyrazino[1,2-a][1,5]benzodiazepin-6(7H)-one] | > 10 | – | 0.01 | – | 100 |
| C[C@@H](Oc1ccc2c(c1)N1CCNCC1CC(=O)N2)c1ccccc1 (stereo partly drawn) [Example 153, 10-[(1R)-1-phenylethoxy]-1,2,3,4,4a,5-hexahydropyrazino[1,2-a][1,5]benzodiazepin-6(7H)-one] | 0.1 | – | 0.01 | 20 | 110 |
| C[C@H](Oc1ccc2c(c1)N1CCNCC1CC(=O)N2)c1ccccc1 (stereo partly drawn) [Example 154, 10-[(1S)-1-phenylethoxy]-1,2,3,4,4a,5-hexahydropyrazino[1,2-a][1,5]benzodiazepin-6(7H)-one] | 0.7 | – | 0.103 | 44 | > 120 |
| O=C1CC2CNCCN2c2cc(OCc3ccccc3F)ccc2N1 (centres unmarked) [Example 155, 10-[(2-fluorobenzyl)oxy]-1,2,3,4,4a,5-hexahydropyrazino[1,2-a][1,5]benzodiazepin-6(7H)-one] | > 10 | – | 0.0384 | – | > 120 |
| O=C1CC2CNCCN2c2cc(OCc3cccc(F)c3)ccc2N1 (centres unmarked) [Example 156, 10-[(3-fluorobenzyl)oxy]-1,2,3,4,4a,5-hexahydropyrazino[1,2-a][1,5]benzodiazepin-6(7H)-one] | 0.35 | – | 0.0059 | 77 | > 120 |
| O=C1CC2CNCCN2c2cc(OCc3ccccc3C(F)(F)F)ccc2N1 (centres unmarked) [Example 157, 10-{[2-(trifluoromethyl)benzyl]oxy}-1,2,3,4,4a,5-hexahydropyrazino[1,2-a][1,5]benzodiazepin-6(7H)-one] | > 10 | – | 0.0295 | – | > 120 |
| O=C1CC2CNCCN2c2cc(OCCc3ccccc3)ccc2N1 (centres unmarked) [Example 158, 10-(2-phenylethoxy)-1,2,3,4,4a,5-hexahydropyrazino[1,2-a][1,5]benzodiazepin-6(7H)-one] | > 10 | – | 0.025 | – | > 120 |
| C[C@H](Cc1ccccc1)Oc1ccc2c(c1)N1CCNCC1CC(=O)N2 (stereo partly drawn) [Example 159, 10-{[(2R)-1-phenylpropan-2-yl]oxy}-1,2,3,4,4a,5-hexahydropyrazino[1,2-a][1,5]benzodiazepin-6(7H)-one] | > 10 | – | 0.00402 | – | > 120 |
| C[C@@H](Cc1ccccc1)Oc1ccc2c(c1)N1CCNCC1CC(=O)N2 (stereo partly drawn) [Example 160, 10-{[(2S)-1-phenylpropan-2-yl]oxy}-1,2,3,4,4a,5-hexahydropyrazino[1,2-a][1,5]benzodiazepin-6(7H)-one] | > 10 | – | 0.0797 | – | > 120 |
| C[C@@H](Oc1ccc2c(c1)N1CCNCC1CC(=O)N2)c1ccccc1F (stereo partly drawn) [Example 161, 10-[(1R)-1-(2-fluorophenyl)ethoxy]-1,2,3,4,4a,5-hexahydropyrazino[1,2-a][1,5]benzodiazepin-6(7H)-one] | 1 | – | 0.01 | 20 | 120 |
| C[C@H](Oc1ccc2c(c1)N1CCNCC1CC(=O)N2)c1ccccc1F (stereo partly drawn) [Example 162, 10-[(1S)-1-(2-fluorophenyl)ethoxy]-1,2,3,4,4a,5-hexahydropyrazino[1,2-a][1,5]benzodiazepin-6(7H)-one] | 1 | – | 0.07 | 20 | > 120 |
| C[C@@H](Cc1ccccc1)Oc1ccc2c(c1)N1CCNC[C@@H]1CC(=O)N2 [Example 163, (4aS)-10-{[(2S)-1-phenylpropan-2-yl]oxy}-1,2,3,4,4a,5-hexahydropyrazino[1,2-a][1,5]benzodiazepin-6(7H)-one] | > 10 | – | 0.07 | – | > 120 |
| O=C1C[C@H]2CNCCN2c2cc(OCCc3cccc(F)c3)ccc2N1 [Example 164, (4aS)-10-[2-(3-fluorophenyl)ethoxy]-1,2,3,4,4a,5-hexahydropyrazino[1,2-a][1,5]benzodiazepin-6(7H)-one] | > 10 | – | 0.007 | – | > 120 |
| C[C@H](Cc1ccccc1)Oc1ccc2c(c1)N1CCNC[C@@H]1CC(=O)N2 [Example 165, (4aS)-10-{[(2R)-1-phenylpropan-2-yl]oxy}-1,2,3,4,4a,5-hexahydropyrazino[1,2-a][1,5]benzodiazepin-6(7H)-one] | > 10 | – | 0.008 | – | > 120 |
| C[C@H](Cc1ccccc1)Oc1ccc2c(c1)N1CCNC[C@H]1CC(=O)N2 [Example 166, (4aR)-10-{[(2R)-1-phenylpropan-2-yl]oxy}-1,2,3,4,4a,5-hexahydropyrazino[1,2-a][1,5]benzodiazepin-6(7H)-one] | > 10 | – | 0.04 | – | > 120 |
| C[C@@H](Cc1ccccc1)Oc1ccc2c(c1)N1CCNC[C@H]1CC(=O)N2 [Example 167, (4aR)-10-{[(2S)-1-phenylpropan-2-yl]oxy}-1,2,3,4,4a,5-hexahydropyrazino[1,2-a][1,5]benzodiazepin-6(7H)-one] | > 10 | – | 1 | – | 110 |
| c1ccc(CN2CCN3c4ccccc4OCC[C@H]3C2)cc1 [Example 168, (4aS)-3-benzyl-2,3,4,4a,5,6-hexahydro-1H-pyrazino[2,1-d][1,5]-benzoxazepine] | > 10 | – | 0.9 | – | 50 |
| O=C1C[C@H]2CNCCN2c2cc(OCC3CC3)ccc2N1 [Example 170, (4aS)-10-(cyclopropylmethoxy)-1,2,3,4,4a,5-hexahydropyrazino[1,2-a][1,5]benzodiazepin-6(7H)-one] | > 10 | – | 0.02 | – | > 120 |
| O=C1C[C@H]2CNCCN2c2cc(OCCc3ccccn3)ccc2N1 [Example 171, (4aS)-10-[2-(pyridin-2-yl)ethoxy]-1,2,3,4,4a,5-hexahydropyrazino[1,2-a][1,5]benzodiazepin-6(7H)-one] | > 10 | – | 0.9 | – | 100 |
| O=C1C[C@H]2CNCCN2c2cc(OCCc3ccccc3Cl)ccc2N1 [Example 172, (4aS)-10-[2-(2-chlorophenyl)ethoxy]-1,2,3,4,4a,5-hexahydropyrazino[1,2-a][1,5]benzodiazepin-6(7H)-one] | > 10 | – | 0.002 | – | > 120 |
| O=C1C[C@H]2CNCCN2c2cc(OCCc3cccc(C(F)(F)F)c3)ccc2N1 [Example 173, (4aS)-10-{2-[3-(trifluoromethyl)phenyl]ethoxy}-1,2,3,4,4a,5-hexahydropyrazino[1,2-a][1,5]benzodiazepin-6(7H)-one] | > 10 | – | 0.004 | – | 110 |
| CCC(C)Oc1ccc2c(c1)N1CCNC[C@@H]1CC(=O)N2 (stereo partly drawn) [Example 174, (4aS)-10-sec-butoxy-1,2,3,4,4a,5-hexahydropyrazino[1,2-a][1,5]benzodiazepin-6(7H)-one] | > 10 | – | 0.007 | – | > 120 |
| O=C1C[C@H]2CNCCN2c2cc(OCCc3cccc(Cl)c3)ccc2N1 [Example 175, (4aS)-10-[2-(3-chlorophenyl)ethoxy]-1,2,3,4,4a,5-hexahydropyrazino[1,2-a][1,5]benzodiazepin-6(7H)-one] | 0.5 | – | 0.001 | 20 | > 120 |
| Cc1cccc(CCOc2ccc3c(c2)N2CCNC[C@@H]2CC(=O)N3)c1 [Example 176, (4aS)-10-[2-(3-methylphenyl)ethoxy]-1,2,3,4,4a,5-hexahydropyrazino[1,2-a][1,5]benzodiazepin-6(7H)-one] | 1 | – | 0.002 | 10 | 100 |
| CCC(Oc1ccc2c(c1)N1CCNC[C@@H]1CC(=O)N2)c1ccccc1 (stereo partly drawn) [Example 177, (4aS)-10-(1-phenylpropoxy)-1,2,3,4,4a,5-hexahydropyrazino[1,2-a][1,5]benzodiazepin-6(7H)-one] | > 10 | – | 0.06 | – | 110 |
